One data set relates to 2008. The experiment in a line: MTT cytotoxicity assay, 2D monolayer. The format is cell-based, human. The settings on record: 72 h, MTT test, ovarian cancer, read-out: IC50 (µM) ± S.D. 2008. An excerpt: (§1) Human lung (A549), colon (HCT-15 and LoVo) and breast (MCF-7) carcinoma cell lines were obtained from American Type Culture Collection (ATCC, Rockville, MD, USA). Human pancreatic BxPC3 carcinoma cells were obtained from European Collection of Cell Culture (ECACC, Salisbury, UK). Human ovarian 2008 cancer cells were kindly provided by Prof. G. Marverti (Dept. of Biomedical Science of Modena University, Modena, Italy). Human squamous cervical A431 carcinoma cells were kindly provided by Prof. F. Zunino (Division of Experimental Oncology B, Istituto Nazionale dei Tumori, Milan, Italy). The LoVo-OXP cells were obtained as previously described. Cell lines were maintained in culture in the logarithmic phase at 37 °C in a 5% carbon dioxide atmosphere using the following media added of 10% fetal calf serum (Euroclone, Milan, Italy), antibiotics (50 units/mL penicillin and 50 μg/mL streptomycin), and 2 mM L-glutamine: (i) RPMI-1640 medium (Euroclone) for HCT-15, A431, MCF-7, BxPC3 and 2008 cells; (ii) F-12 HAM’S (Sigma Chemical Co.) for A549, LoVo and LoVo-OXP cells.
(§2) The growth inhibitory effect towards 2D tumor cell lines was evaluated by means of MTT assay as previously described. IC50 values were calculated by four parameters logistic (4-PL) model. All the values are the means ± SD of not less than five measurements starting from three different cell cultures.
(§3) The in vitro antitumor activity of copper(II) complexes 1–3 and the uncoordinated ligands [HC(COOH)(pz^Me2)2], [HC(COOH)(pz)2] and [HC(COOH)(tz)2] was evaluated against a panel of human cancer cell lines derived from solid tumors. Adherent cell lines representative of cervical (A431), pancreatic (BxPC3) colon (HCT-15), breast (MCF-7), lung (A549), and ovarian (2008) cancers, differently sensitive to cisplatin, were exposed to the indicated compounds for 72 h.
On the technique in general: Tetrazolium dyes change colour on reduction, which living cells bring about.

The next data set has as its system A431. The experiment in a line: MTT cytotoxicity assay, 2D monolayer. The format is cell-based, human. The settings on record: 72 h, MTT test, cervical carcinoma; read-out: IC50 (µM) ± S.D. A431.
Text: as §1, §2, §3

A further data set has as its system A549. The experiment in a line: MTT cytotoxicity assay, 2D monolayer. The format is cell-based, human. As to conditions: 72 h, MTT test, lung carcinoma, read-out: IC50 (µM) ± S.D. A549.
Text: as §1, §2, §3

The next data set concerns BxPC3. Put plainly: MTT cytotoxicity assay, 2D monolayer. The format is cell-based, human. The settings on record: 72 h, MTT test, pancreatic carcinoma; read-out: IC50 (µM) ± S.D. BxPC3.
Text: as §1, §2, §3

Another data set deals with HCT-15. The experiment in a line: MTT cytotoxicity assay, 2D monolayer. In kind it is cell-based, human. As to conditions: 72 h, MTT test, colon carcinoma, read-out: IC50 (µM) ± S.D. HCT-15.
Text: as §1, §2, §3

For the next data set, the system named is MCF-7. The experiment in a line: MTT cytotoxicity assay, 2D monolayer. The format is cell-based, human. As to conditions: 72 h, MTT test, breast carcinoma, read-out: IC50 (µM) ± S.D. MCF-7.
Text: as §1, §2, §3

Data set [1] deals with HCT-15 colon cancer cell spheroids. Put plainly: Acid phosphatase (APH) assay in 3D spheroids. In kind it is cell-based, human. The settings on record: 72 h, APH test, read-out: IC50 (µM) ± S.D. HCT-15 spheroids. As for the experimental part: Spheroid cultures were obtained by seeding 2.5 × 10^3 HCT-15 cells/well in round bottom non-tissue culture treated 96 well-plate (Greiner Bio-one, Kremsmünster, Austria) in phenol red free RPMI-1640 medium (Sigma Chemical Co.), containing 10% FCS and supplemented with 20% methyl cellulose stock solution.
An APH modified assay was used for determining cell viability in 3D spheroids, as previously described. IC50 values were calculated with a four parameter logistic (4-PL) model. All the values are the means ± SD of not less than four independent experiments.
The in vitro antitumor efficacy of the newly developed compounds was also tested on 3D colon cancer cell culture models. Differently from 2D monolayer culture, 3D spheroid cell culture systems comprise cancer cells in various cell growth stages. Consequently, the multicellular cancer spheroid model is recognized to better reflect the tumor mass in vivo regarding drug permeation, cell interactions, gene expression, hypoxia and nutrient gradients with respect to monolayer cell cultures. Table 4 summarizes the IC50 values obtained after treatment of 3D cell spheroids of human HCT-15 colon cancer cells with copper(II) compounds as well as with cisplatin, as reference drug. In accordance with 2D chemosensitivity assays, complex 3 was scarcely effective, whereas complex 1 was as effective as cisplatin. […] We hypothesize that in this non-proliferative and very resistant tumor model the higher lipophilicity of 1, due to the presence of methyl substituents on the pyrazolyl rings, might be responsible for the enhanced compound penetration in the core area of spheroids.

Data set [2] deals with panel of human cancer cell lines derived from solid tumors. Put plainly: MTT cytotoxicity, whole panel of human cancer cell lines. The format is cell-based. The settings on record: mean over the cell lines of Table 2, 72 h. As for the experimental part:
as §2, §3
(§4) HCT-15 colon cancer cells are notoriously poorly chemosensitive to cisplatin. […] As for cisplatin, the clinical effectiveness of OXP is seriously hampered by the cancer cell resistance and, at present, few other drug regimens are available for patients with OXP-refractory colorectal cancers. […] The RF values (calculated by dividing IC50 for resistant cells by those for sensitive ones) were about 10 times lower than that of OXP, excluding the occurrence of cross-resistance phenomena.

A further data set has as its system LoVo-OXP. Put plainly: MTT cytotoxicity assay, cross-resistance profile. The format is cell-based, human. As to conditions: for IC50: 72 h, MTT test, oxaliplatin-resistant colon cancer cells, read-out: IC50 (µM) ± S.D. LoVo-OXP; for RF (resistance factor): RF = IC50 (resistant cells)/IC50 (wild-type cells).
Text: as §1, §2, §4

A further data set concerns LoVo. The experiment in a line: MTT cytotoxicity assay, cross-resistance profile. In kind it is cell-based, human. The settings on record: 72 h, MTT test, oxaliplatin-sensitive colon cancer cells; read-out: IC50 (µM) ± S.D. LoVo.
Text: as §1, §2, §4

For data set [3], the system named is 26S proteasome, chymotrypsin-like (CT-L) activity. Put plainly: Proteasome inhibition, chymotrypsin-like (CT-L) activity. In kind it is biochemical. The settings on record: isolated 26S rabbit proteasomes, 15 μM, 60 min. As for the experimental part: (§5) The purified rabbit 26S proteasome (Sigma Aldrich) was incubated for 60 min at 37 °C in assay buffer (50 mM Tris-HCl, pH 7.5, 250 mM sucrose, 5 mM MgCl2, 1 mM DTT, and 0.5 mM EDTA), in the presence of 15 µM of 1–3 or 10 µM Lactacystin. Afterwards, fluorogenic peptides were added and substrate hydrolysis was measured after 30 min by monitoring spectrofluorometrically the release of AMC (excitation at 370 nm, emission at 460 nm).
(§6) The ability of copper complexes to hamper the functioning of each individual proteasome active site, chymotrypsin-like (CT-L), trypsin-like (T-L), and caspase-like (C-L) activities was assessed in isolated 26S rabbit proteasomes after incubation with 15 μM of tested compounds. Lactacystin, an irreversible nonpeptidomimetic proteasome inhibitor, was used as a positive control. […] Conversely, no significant effects were recorded towards the T-L site. Even if the chymotrypsin-like sites are the major drug targets in cancer, it has been recently observed that co-targeting trypsin-like site increased cytotoxicity of copper complexes acting as proteasome inhibitors.

Data set [4] concerns 26S proteasome, caspase-like (C-L) activity. Put plainly: Proteasome inhibition, caspase-like (C-L) activity. In kind it is biochemical. The settings on record: isolated 26S rabbit proteasomes, 15 μM, 60 min. As for the experimental part:
as §5, §6

The next data set in a line: Solubility. In kind it is physicochemical.
The next data set in a line: Stability to air. As to conditions: also as solutions. The format is physicochemical.
Another data set has as its system LoVo cells. Put plainly: Cellular uptake (intracellular copper by GF-AAS). The format is cell-based, human. The settings on record: 24 h, 2 μM. As for the experimental part: LoVo cells (2.5 × 10^6) were seeded in 75 cm^2 flasks in growth medium (20 mL). After overnight incubation, the medium was replaced, and the cells were treated with tested compounds for 24 h. Cell monolayers were then processed and mineralized as previously described. The sample was analyzed for copper by using a Varian AA Duo graphite furnace atomic absorption spectrometer (Varian, Palo Alto, CA, USA) at the wavelength of 324 nm. The calibration curve was obtained using known concentrations of standard solutions purchased from Sigma Chemical Co.
With the purpose of underling a possible correlation between cellular uptake efficiency and cytotoxicity, LoVo cells were treated for 24 h with equimolar concentrations (2 μM) of copper(II) complexes and the intracellular copper amount was quantified by means of Graphite Furnace Atomic Absorption Spectrometry (GF-AAS) analysis. […] In fact, the intracellular copper content detected in LoVo cells follows the same cytotoxicity trend 1 > 2 > 3.

Where two headings read alike, the source gives them in different places.

A word on the IC50: it is the concentration at which inhibition is half-maximal. For the compound `N.N.[Cl][Pt][Cl]` [Cisplatin, cisplatin, reference compound], the IC50 in the data set on 2008 was found to be 2.2 ± 1 µM; in the data set with A431, 1.7 ± 0.5 µM; in the data set on A549 it was 7.5 ± 1.2 µM; with BxPC3, 7.3 ± 1.2 µM; in the data set with HCT-15, 15.3 ± 2.2 µM; with MCF-7, 8.8 ± 1.4 µM. The IC50 in data set [1] is 65.9 ± 3.85 µM; in data set [2], 7.1 µM.
For the compound `O=C1[O][Pt]2([NH][C@@H]3CCCC[C@H]3[NH]2)[O]C1=O` [Oxaliplatin, oxaliplatin, reference compound], the figures for the IC50 in the data set with LoVo-OXP and in the data set with LoVo were 15.2 ± 2.2 µM and 1.4 ± 0.7 µM, respectively. In addition, the “RF (resistance factor)” value in the data set on LoVo-OXP (LoVo-OXP/LoVo) is listed as 10.9.
With `O=C(O)C(n1cccn1)n1cccn1` [[HC(COOH)(pz)2], bis(pyrazol-1-yl)acetic acid, reference compound], the IC50 was greater than 100 µM with 2008 (Homo sapiens); greater than 100 µM with A549 (Homo sapiens, A549); greater than 100 µM in the data set with HCT-15 (Homo sapiens, HCT-15); greater than 100 µM in the data set on MCF-7 (Homo sapiens, MCF7).
`Cc1cc(C)n(C(C(=O)O)n2nc(C)cc2C)n1` [[HC(COOH)(pz^Me2)2], bis(3,5-dimethylpyrazol-1-yl)acetic acid, reference compound]: the IC50 in the data set with 2008 (Homo sapiens) is greater than 100 µM; in the data set with A549 (Homo sapiens, A549) it was greater than 100 µM; with HCT-15 (Homo sapiens, HCT-15), greater than 100 µM; in the data set on MCF-7 (Homo sapiens, MCF7), greater than 100 µM.
`O=C(O)C(n1cncn1)n1cncn1` [[HC(COOH)(tz)2], bis(1,2,4-triazol-1-yl)acetic acid, reference compound]: the IC50 is greater than 100 µM in the data set on 2008 (Homo sapiens); greater than 100 µM in the data set with A549 (Homo sapiens, A549); greater than 100 µM in the data set with HCT-15 (Homo sapiens, HCT-15); greater than 100 µM in the data set with MCF-7 (Homo sapiens, MCF7).
Turning to `O=C(O)C(n1cccn1)n1cccn1.O=C(O)C(n1cccn1)n1cccn1.[Cu+2].[O-][Cl+3]([O-])([O-])[O-].[O-][Cl+3]([O-])([O-])[O-]` [compound 2, [HC(COOH)(pz)2]2Cu(ClO4)2], the IC50 in the data set with 2008 is 7.9 ± 1.4 µM; in the data set with A431 it was 12.7 ± 1.2 µM; with A549 it was 5.5 ± 0.2 µM; in the data set on BxPC3, 7.5 ± 1.2 µM; with HCT-15, 9.3 ± 2.7 µM; in the data set on MCF-7, 10.2 ± 2.5 µM. Moreover, the IC50 was 4.9 ± 0.6 µM in the data set with LoVo-OXP, 4 ± 0.5 µM with LoVo, 107.8 ± 1 µM in data set [1] and 8.9 µM in data set [2]. For the same compound, the “RF times lower than that of OXP” value in the data set on LoVo-OXP (LoVo-OXP/LoVo) is “about 10 times”. Also, in the data set on LoVo-OXP (LoVo-OXP/LoVo), the “RF (resistance factor)” value was 1.2. For the same compound, the “effect on CT-L proteasome activity” value in data set [3] is “able to affect CT-L and C-L activities, even if to a lesser extent than lactacystin”. In addition, the “effect on C-L proteasome activity” value in data set [4] was “able to affect CT-L and C-L activities, even if to a lesser extent than lactacystin”. Further, in “Solubility” (methanol, DMSO, acetonitrile), the “solubility in methanol, DMSO and acetonitrile” value is on record as “soluble”. Moreover, the solubility in water entry in “Solubility” (water) is “soluble”. In addition, the air stability result in the data set “Stability to air” is recorded as “air stable even as solutions”.
`CO.O=C(O)C(n1cncn1)n1cncn1.O=C(O)C(n1cncn1)n1cncn1.[Cu+2].[O-][Cl+3]([O-])([O-])[O-].[O-][Cl+3]([O-])([O-])[O-]` [compound 3, [HC(COOH)(tz)2]2Cu(ClO4)2·CH3OH]: the IC50 was 69.3 ± 4.7 µM with 2008; 15.9 ± 5.8 µM in the data set on A431; 24.5 ± 1.9 µM in the data set with A549; 18.5 ± 4.4 µM in the data set on BxPC3; 59.5 ± 2.7 µM in the data set with HCT-15; 39.6 ± 4.6 µM in the data set on MCF-7. For the same compound, the IC50 in the data set on LoVo-OXP was 32.5 ± 1 µM; in the data set on LoVo, 15.3 ± 1 µM; in data set [1], greater than 100 µM. Besides, the “RF (resistance factor)” value in the data set with LoVo-OXP (LoVo-OXP/LoVo) is 2.1. Moreover, the “cellular uptake efficiency (intracellular copper amount)” value in the data set on LoVo cells is reported as “lowest cellular uptake efficiency”. Also, in [3], the “effect on CT-L proteasome activity” value is “able to affect CT-L and C-L activities, even if to a lesser extent than lactacystin”. Besides, the “effect on C-L proteasome activity” value in [4] is “able to affect CT-L and C-L activities, even if to a lesser extent than lactacystin”. Besides, the “solubility in DMSO” value in the data set “Solubility” (DMSO) is recorded as “soluble”. The air stability result in the data set “Stability to air” is on record as “air stable even as solutions”.

The values above are taken from publication PMC6539868, “Syntheses and Biological Studies of Cu(II) Complexes Bearing Bis(pyrazol-1-yl)- and Bis(triazol-1-yl)-acetato Heteroscorpionate Ligands” (Molecules, 2019).
